{
  "source": "paper PMC5830615",
  "about": "(Scientific Reports, 2018)",
  "key": {"[1]": {"system": "H188 (Epac1-based cAMP biosensor)", "experiment": "FRET response of biosensor H188 to cAMP analogs and Epac inhibitors in HEK293-H188-C24 cells", "type": "cell-based", "details": "for Effect on ΔFRET measured in response to 8-pCPT-2′-O-Me-cAMP-AM: Epac inhibitor co-applied", "from_the_text": "H188 contains the cAMP sensor Epac1 in which the full-length protein is truncated to remove the Disheveled, Egl-10, and Pleckstrin (DEP) membrane-targeting domain so that its expression is confined largely to the cytoplasm (Fig. 2a,b)[30]. T781A and F782A mutations introduced within the CDC25 homology domain disrupt guanine nucleotide exchange factor (GEF) activity so that binding of cAMP to H188 is not linked to downstream signaling events mediated by the Epac1 effector protein Rap1 GTPase (Fig. 2a)[30]. In H188 the Epac1 backbone is flanked by an mTurquoise2Δ FRET donor chromophore at the N-terminus, and tandem cp173 Venus-Venus FRET acceptor chromophores at the C-terminus (Fig. 2a). Binding of cAMP reduces FRET so that when exciting with 440 nm light, there is an increase of 485 nm (mTuquoise2Δ) and a decrease of 535 nm (cp173 Venus-Venus) emission fluorescence. This ΔFRET is measured as an increase of the 485/535 nm FRET ratio.\nHEK293-H188-C24 cells stably expressing H188 were plated at 80% confluence on 96-well clear-bottom assay plates (Costar 3904, Corning, NY) coated with rat tail collagen (Collaborative Biomedical Products, Bedford, MA). HEK293 cells stably expressing select GPCRs were transduced for 16 hours with H188 virus at a density of ca. 60,000 cells/well under conditions in which the multiplicity of infection (m.o.i.) was equivalent to 25 viral particles per cell. For all assays, the culture media was then removed and replaced by 200 μl/well of a standard extracellular saline (SES) solution supplemented with 11 mM glucose and 0.1% BSA[31],[34]–[36]. The composition of the SES was (in mM): 138 NaCl, 5.6 KCl, 2.6 CaCl2, 1.2 MgCl2, 11.1 glucose, and 10 Hepes (295 mOsmol, pH 7.4). Real-time kinetic assays of FRET were performed using a FlexStation 3 microplate reader equipped with monochromators (Molecular Devices, Sunnyvale, CA). Excitation light was delivered at 435/9 nm (455 nm cut-off), and emitted light was detected at 485/15 nm (CFP) or 535/15 nm (YFP)[31],[34]–[36]. The emission intensities were the averages of 12 excitation flashes for each time point per well. Test solutions dissolved in SES were placed in V-bottom 96-well plates (Greiner Bio-One, Monroe, NC), and an automated pipetting procedure was used to transfer 50 μl of each test solution to each well of the assay plate containing monolayers of these cells. The 485/535 emission ratio was calculated for each well and the mean +/− s.d. values for 12 wells were averaged. To facilitate comparisons amongst different experiments, these FRET ratio values were normalized using baseline subtraction so that a y-axis value of 1 corresponds to the initial baseline FRET ratio, whereas a value of 2 corresponds to a doubling of the FRET ratio. The time course of the ΔFRET ratio was plotted after exporting data to Origin 8.0 (OriginLab, Northampton, MA). Origin 8.0 was also used for generation of Hill plots describing dose-response relationships."}, "human NPY2R": {"target": "T1, human NPY2R (Homo sapiens, UniProt P49146)", "T1 construct": "3xHA (own knowledge: 'TN' in the cDNA Resource Center clone ID denotes an N-terminal 3xHA tag); host or cells: HEK293-H188-C24 (transient transfection, pcDNA3.1)", "T1 sequence (P49146 1-381)": "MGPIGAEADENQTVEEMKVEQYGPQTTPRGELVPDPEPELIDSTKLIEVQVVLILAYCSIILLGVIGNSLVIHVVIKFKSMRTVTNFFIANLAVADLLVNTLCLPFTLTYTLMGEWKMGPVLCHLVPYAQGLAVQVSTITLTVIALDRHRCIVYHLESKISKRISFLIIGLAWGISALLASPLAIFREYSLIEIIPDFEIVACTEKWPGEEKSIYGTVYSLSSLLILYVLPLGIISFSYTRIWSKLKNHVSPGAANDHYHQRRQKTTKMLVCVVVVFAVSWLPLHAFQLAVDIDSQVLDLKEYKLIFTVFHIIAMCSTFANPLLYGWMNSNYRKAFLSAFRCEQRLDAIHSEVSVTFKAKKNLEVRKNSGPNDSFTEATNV", "experiment": "FRET assay, inhibition of adenosine-stimulated cAMP production in HEK293-H188-C24 cells transfected with human NPY2R", "type": "cell-based", "details": "BIIE0246 300 nM; adenosine 2 μM", "method": "(§1) Transient transfections were performed using Lipofectamine and Plus Reagent (Thermo Fisher) using methodology described previously by our laboratory for HEK293 cells. […] Plasmid encoding human NPY2R (I.D. NPYR20TN00) in pcDNA3.1 was from the University of Missouri-Rolla cDNA Resource Center (Rolla, MO). Individual clones of HEK293 cells stably expressing select FRET reporters were obtained by G418 antibiotic resistance selection, as described previously. Adenovirus for transduction of HEK293 cells with H188 was generated by a commercial vendor (ViraQuest, North Liberty, IA) using the shuttle vector pVQAd CMV K-NpA and the H188 plasmid originally created by Klarenbeek and co-workers[30].\n(§2) HEK293-H188-C24 cells stably expressing H188 were plated at 80% confluence on 96-well clear-bottom assay plates (Costar 3904, Corning, NY) coated with rat tail collagen (Collaborative Biomedical Products, Bedford, MA). […] Real-time kinetic assays of FRET were performed using a FlexStation 3 microplate reader equipped with monochromators (Molecular Devices, Sunnyvale, CA). Excitation light was delivered at 435/9 nm (455 nm cut-off), and emitted light was detected at 485/15 nm (CFP) or 535/15 nm (YFP)[31],[34]–[36]. […]"}, "human GLP-1R": {"system": "human GLP-1R", "experiment": "FRET cAMP assay in HEK293-GLP-1R cells (stable human GLP-1R) virally transduced with H188", "type": "cell-based", "details": "HEK293-GLP-1R cells transduced with H188", "method": "(§3) HEK293-H188-C24 cells stably expressing H188 were plated at 80% confluence on 96-well clear-bottom assay plates (Costar 3904, Corning, NY) coated with rat tail collagen (Collaborative Biomedical Products, Bedford, MA). HEK293 cells stably expressing select GPCRs were transduced for 16 hours with H188 virus at a density of ca. 60,000 cells/well under conditions in which the multiplicity of infection (m.o.i.) was equivalent to 25 viral particles per cell. For all assays, the culture media was then removed and replaced by 200 μl/well of a standard extracellular saline (SES) solution supplemented with 11 mM glucose and 0.1% BSA[31],[34]–[36]. The composition of the SES was (in mM): 138 NaCl, 5.6 KCl, 2.6 CaCl2, 1.2 MgCl2, 11.1 glucose, and 10 Hepes (295 mOsmol, pH 7.4). Real-time kinetic assays of FRET were performed using a FlexStation 3 microplate reader equipped with monochromators (Molecular Devices, Sunnyvale, CA). Excitation light was delivered at 435/9 nm (455 nm cut-off), and emitted light was detected at 485/15 nm (CFP) or 535/15 nm (YFP)[31],[34]–[36]. The emission intensities were the averages of 12 excitation flashes for each time point per well."}, "[2]": {"system": "HEK293-H188-C24 cells, empty vector (EV)", "experiment": "FRET cAMP assay in HEK293-H188-C24 cells transfected with negative control empty vector", "type": "cell-based, human", "details": "GLP-1 and exendin-4 at 10 nM", "method": "as §1, §2"}, "wild-type HEK293 cells": {"system": "wild-type HEK293 cells", "experiment": "FRET cAMP assay in wild-type HEK293 cells transduced with H188 (negative control)", "type": "cell-based, human", "details": "WT HEK293 lacking recombinant receptors, H188 virus; IBMX at 50 μM", "method": "as §3"}, "adenosine A2B receptor": {"system": "adenosine A2B receptor", "experiment": "FRET cAMP assay, endogenous adenosine A2B receptors in untransfected HEK293-H188-C24 cells", "type": "cell-based, human", "details": "read-out: Kd for antagonist action versus adenosine; versus 4 μM adenosine", "method": "HEK293 cells stably expressing select GPCRs were transduced for 16 hours with H188 virus at a density of ca. 60,000 cells/well under conditions in which the multiplicity of infection (m.o.i.) was equivalent to 25 viral particles per cell. For all assays, the culture media was then removed and replaced by 200 μl/well of a standard extracellular saline (SES) solution supplemented with 11 mM glucose and 0.1% BSA[31],[34]–[36]. […] Real-time kinetic assays of FRET were performed using a FlexStation 3 microplate reader equipped with monochromators (Molecular Devices, Sunnyvale, CA). […] The emission intensities were the averages of 12 excitation flashes for each time point per well."}},
  "data": [
    {"smiles": "CC(=O)Oc1ccc(CO)cc1", "note": "[4-Abn-OH, 4-acetoxybenzyl alcohol]", "values": [
      {"measurement": "Effect on ΔFRET measured in response to forskolin", "setting": "[1]", "result": "not blocked"}
    ]},
    {"smiles": "N=C(N)NCCC[C@H](NC(=O)CC1(CC(=O)N2CCN(C3c4ccccc4NC(=O)c4ccccc43)CC2)CCCC1)C(=O)NCCn1c(=O)n(-c2ccccc2)n(-c2ccccc2)c1=O", "note": "(stereo partly shown) [BIIE0246]", "values": [
      {"measurement": "Effect on inhibitory actions of EP45 (1,000 nM) and PYY(3–36) (300 nM)", "setting": "human NPY2R", "result": "reduced the inhibitory actions"}
    ]},
    {"smiles": "CC1CCc2c(cc(Br)c(F)c2Br)N1C=O", "note": "(stereo not shown) [CE3F4]", "values": [
      {"measurement": "Effect on baseline FRET ratio when administered alone", "setting": "[1]", "result": "unaffected"},
      {"measurement": "Effect on ΔFRET measured in response to 8-pCPT-2′-O-Me-cAMP-AM", "setting": "[1]", "result": "reduced"}
    ]},
    {"smiles": "Nc1ncnc2c1ncn2[C@H]1CC[C@@H](CO)O1", "note": "[DDA]", "values": [
      {"measurement": "Effect on the cAMP-elevating action of GLP-1", "setting": "human GLP-1R", "result": "suppressed the action of GLP-1"}
    ]},
    {"smiles": "Cc1ccc(S(=O)(=O)c2c(C)cc(C)cc2C)cc1", "note": "[ESI-05]", "values": [
      {"measurement": "Effect on baseline FRET ratio when administered alone", "setting": "[1]", "result": "unaffected"},
      {"measurement": "Effect on ΔFRET measured in response to 8-pCPT-2′-O-Me-cAMP-AM", "setting": "[1]", "result": "without effect"}
    ]},
    {"smiles": "CC[C@H](C)[C@H](NC(=O)[C@H](Cc1ccccc1)NC(=O)[C@H](CCC(=O)O)NC(=O)[C@H](CCCCN)NC(=O)[C@H](C)NC(=O)[C@H](C)NC(=O)[C@H](CCC(N)=O)NC(=O)CNC(=O)[C@H](CCC(=O)O)NC(=O)[C@H](CC(C)C)NC(=O)[C@H](Cc1ccc(O)cc1)NC(=O)[C@H](CO)NC(=O)[C@H](CO)NC(=O)[C@@H](NC(=O)[C@H](CC(=O)O)NC(=O)[C@H](CO)NC(=O)[C@@H](NC(=O)[C@H](Cc1ccccc1)NC(=O)[C@@H](NC(=O)CNC(=O)[C@H](CCC(=O)O)NC(=O)[C@H](C)NC(=O)[C@@H](N)Cc1c[nH]cn1)[C@@H](C)O)[C@@H](C)O)C(C)C)C(=O)N[C@@H](C)C(=O)N[C@@H](Cc1c[nH]c2ccccc12)C(=O)N[C@@H](CC(C)C)C(=O)N[C@H](C(=O)N[C@@H](CCCCN)C(=O)NCC(=O)N[C@@H](CCCNC(=N)N)C(N)=O)C(C)C", "note": "[GLP-1, glucagon-like peptide-1]", "values": [
      {"measurement": "Effect on levels of cAMP in empty vector cells", "setting": "[2]", "result": "without effect"},
      {"measurement": "Effect on levels of cAMP in wild-type HEK293 cells", "setting": "wild-type HEK293 cells", "result": "no such effect"}
    ]},
    {"smiles": "CCCn1c(=O)c2[nH]c(-c3cnn(Cc4cccc(C(F)(F)F)c4)c3)nc2n(CC)c1=O", "note": "[GS6201]", "values": [
      {"measurement": "Kd", "setting": "adenosine A2B receptor", "result": 0.163, "unit": "µM"}
    ]}
  ]
}
